Molecules are shown by their SMILES.

In one experiment the test system is Spontaneously hypertensive rats (SHR). The experiment in a line: Acute Efficacy in Spontaneously Hypertensive Rats (SHR), telemetry blood pressure. Type of experiment: in vivo, rat. To be noted: single oral dose 0.1 mpk P.O. The essentials:
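Male SHR with aortic telemetry catheters, 14-day recovery, conscious and freely moving; single oral gavage in 10% transcutol/20% Cremophor/70% water. BP sampled 30 s every 10 min, hourly averages minus prior-day vehicle baseline; value is maximum peak SBP decrease at stated mg/kg PO dose.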
For the molecule `CC1(C(=O)NC2CC2)C(=O)Nc2nc(-c3nn(CCC(F)(F)C(F)(F)F)c4ncc(Cl)cc34)nc(N)c21` (stereo not drawn) [Example 268, 4-amino-2-[5-chloro-1-(3,3,4,4,4-pentafluorobutyl)-1H-pyrazolo[3,4-b]pyridin-3-yl]-N-cyclopropyl-5-methyl-6-oxo-6,7-dihydro-5H-pyrrolo[2,3-d]pyrimidine-5-carboxamide], the “Maximum peak decrease of systolic blood pressure (SBP) in SHR, Category” value (from here on “Maximum peak decrease”) is given as “B (Category B=SBP in SHRs 25-40 mmHg)”.

The same experiment, now with this note: single oral dose 0.3 mpk P.O.
As for `CNc1nc(-c2nn(CCC(F)(F)C(F)(F)F)c3ncccc23)nc2c1C(C(=O)NC1CC1)(C1CC1)C(=O)N2` (stereo not drawn) [Example 262, N,5-dicyclopropyl-4-(methylamino)-6-oxo-2-[1-(3,3,4,4,4-pentafluorobutyl)-1H-pyrazolo[3,4-b]pyridin-3-yl]-6,7-dihydro-5H-pyrrolo[2,3-d]pyrimidine-5-carboxamide], the “Maximum peak decrease” value was “A (Category A=SBP in SHRs<25 mmHg)”.
On to `CNc1nc(-c2nn(CCC(F)(F)F)c3ncccc23)nc2c1C(C)(C(=O)NC1CC1)C(=O)N2` (stereo not drawn) [Example 263, N-cyclopropyl-5-methyl-4-(methylamino)-6-oxo-2-[1-(3,3,3-trifluoropropyl)-1H-pyrazolo[3,4-b]pyridin-3-yl]-6,7-dihydro-5H-pyrrolo[2,3-d]pyrimidine-5-carboxamide], for which the “Maximum peak decrease” value is recorded as “A (Category A=SBP in SHRs<25 mmHg)”.
Turning to `CNc1nc(-c2nn(CCCC(F)(F)F)c3ncccc23)nc2c1C(C)(C(=O)NC1CC1)C(=O)N2` (stereo not drawn) [Example 264, N-cyclopropyl-5-methyl-4-(methylamino)-6-oxo-2-[1-(4,4,4-trifluorobutyl)-1H-pyrazolo[3,4-b]pyridin-3-yl]-6,7-dihydro-5H-pyrrolo[2,3-d]pyrimidine-5-carboxamide], the “Maximum peak decrease” value is “B (Category B=SBP in SHRs 25-40 mmHg)”.
Consider `CC1(C(=O)NC2CC2)C(=O)Nc2nc(-n3nc(CCC(F)(F)C(F)(F)F)c4ncccc43)nc(N)c21` (stereo not drawn) [Example 266, 4-amino-N-cyclopropyl-5-methyl-6-oxo-2-[3-(3,3,4,4,4-pentafluorobutyl)-1H-pyrazolo[4,3-b]pyridin-1-yl]-6,7-dihydro-5H-pyrrolo[2,3-d]pyrimidine-5-carboxamide], for which the “Maximum peak decrease” value is “C (Category C=SBP in SHRs>40 mmHg)”.
In the case of `CC1(C(=O)NC2CC2)C(=O)Nc2nc(-c3nn(CCC(F)(F)C(F)(F)F)c4ncc(Cl)cc34)nc(N)c21` (stereo not drawn) [Example 267, 4-amino-2-[5-chloro-1-(3,3,4,4,4-pentafluorobutyl)-1H-pyrazolo[3,4-b]pyridin-3-yl]-N-cyclopropyl-5-methyl-6-oxo-6,7-dihydro-5H-pyrrolo[2,3-d]pyrimidine-5-carboxamide], the “Maximum peak decrease” value is “B (Category B=SBP in SHRs 25-40 mmHg)”.
Consider `Cc1nnc(C2(C)C(=O)Nc3nc(-c4nn(CCC(F)(F)C(F)(F)F)c5ncc(Cl)cc45)nc(N)c32)o1` (stereo not drawn) [Example 269, 4-amino-2-[5-chloro-1-(3,3,4,4,4-pentafluorobutyl)-1H-pyrazolo[3,4-b]pyridin-3-yl]-5-methyl-5-(5-methyl-1,3,4-oxadiazol-2-yl)-5,7-dihydro-6H-pyrrolo[2,3-d]pyrimidin-6-one], for which the “Maximum peak decrease” value is recorded as “C (Category C=SBP in SHRs>40 mmHg)”.
Still for that read-out and setting: the result for `CC1(C(N)=O)C(=O)Nc2nc(-c3nc(CCC(F)(F)C(F)(F)F)c4ccccn34)nc(N)c21` (stereo not drawn) [Example 270, 4-amino-5-methyl-6-oxo-2-[1-(3,3,4,4,4-pentafluorobutyl)imidazo[1,5-a]pyridin-3-yl]-6,7-dihydro-5H-pyrrolo[2,3-d]pyrimidine-5-carboxamide] reads “A (Category A=SBP in SHRs<25 mmHg)”.

The same experiment, now with this note: single oral dose 1 mpk P.O.
For the molecule `CN(C)C(=O)C1(C)C(=O)Nc2nc(-n3nc(CCC(F)(F)C(F)(F)F)c4cc(Cl)ccc43)nc(N)c21` (stereo not drawn) [Example 265, 4-amino-2-[5-chloro-3-(3,3,4,4,4-pentafluorobutyl)-1H-indazol-1-yl]-N,N,5-trimethyl-6-oxo-6,7-dihydro-5H-pyrrolo[2,3-d]pyrimidine-5-carboxamide], the “Maximum peak decrease” value was “C (Category C=SBP in SHRs>40 mmHg)”.

The record behind these values is patent publication US9365574B2, “Soluble guanylate cyclase activators” (Merck Sharp & Dohme Corp., priority 2010, dated 2016).
